# Source: PubChem BioAssay (NCI)
#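 Compound exposure: 48 hours, 5 concentrations, 96-well plates. TGI is the concentration that stops growth completely.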
# How the values were obtained:
# Test in all cases: DTP human tumour cell line panel, 48 h
# 786-0 renal = tested on: 786-0 renal
# HCT-15 colon = tested on: HCT-15 colon
# HOP-62 NSCLC = tested on: HOP-62 NSCLC
# HT29 colon = tested on: HT29 colon
# K-562 leukemia = tested on: K-562 leukemia
# KM12 colon = tested on: KM12 colon
# LOX IMVI melanoma = tested on: LOX IMVI melanoma
# M14 melanoma = tested on: M14 melanoma
# MOLT-4 leukemia = tested on: MOLT-4 leukemia
# OVCAR-5 ovarian = tested on: OVCAR-5 ovarian
# SF-295 CNS = tested on: SF-295 CNS
# SK-MEL-5 melanoma = tested on: SK-MEL-5 melanoma
# SNB-19 CNS = tested on: SNB-19 CNS
# TK-10 renal = tested on: TK-10 renal
# XF 498 CNS = tested on: XF 498 CNS
# HCC-2998 colon = tested on: HCC-2998 colon
# SK-OV-3 ovarian = tested on: SK-OV-3 ovarian
# DU-145 prostate = tested on: DU-145 prostate
# HS 578T breast = tested on: HS 578T breast
# PC-3 prostate = tested on: PC-3 prostate
SMILES,TGI (786-0 renal) [µM],TGI (HCT-15 colon) [µM],TGI (HOP-62 NSCLC) [µM],TGI (HT29 colon) [µM],TGI (K-562 leukemia) [µM],TGI (KM12 colon) [µM],TGI (LOX IMVI melanoma) [µM],TGI (M14 melanoma) [µM],TGI (MOLT-4 leukemia) [µM],TGI (OVCAR-5 ovarian) [µM],TGI (SF-295 CNS) [µM],TGI (SK-MEL-5 melanoma) [µM],TGI (SNB-19 CNS) [µM],TGI (TK-10 renal) [µM],TGI (XF 498 CNS) [µM],TGI (HCC-2998 colon) [µM],TGI (SK-OV-3 ovarian) [µM],TGI (DU-145 prostate) [µM],TGI (HS 578T breast) [µM],TGI (PC-3 prostate) [µM]
CN(C)CCNC(=O)c1cccc2c(Nc3ccc(S(=O)(=O)N=C(N)N)cc3)c3ccccc3nc12,60,> 100,39.2,> 100,77.4,> 100,20.8,> 100,6.83,90.4,75.2,27.9,17.9,> 100,47.4,–,–,–,–,–
COC(=O)C(C(=O)Cc1ccccc1[N+](=O)[O-])C(=O)OC,> 100,> 100,> 100,> 100,–,> 100,> 100,> 100,> 100,–,> 100,> 100,> 100,> 100,> 100,> 100,> 100,–,–,–
CC(Oc1ccc(OCC2CCCCC2)cc1)C(=O)OCC(=O)c1ccc(-c2ccccc2)cc1 (stereo unspecified),> 100,> 100,–,> 100,> 100,> 100,> 100,> 100,> 100,–,> 100,> 100,> 100,> 100,> 100,> 100,> 100,–,–,–
C=C(C)C1CCC2(C)CC1c1c(c(C)cc3c1[nH]c1ccccc13)O2 (stereo unspecified),> 25,> 25,> 25,> 25,> 25,> 25,> 25,> 25,> 25,> 25,–,> 25,> 25,–,> 25,> 25,> 25,–,–,–
CCOC(=O)C1SC(=Nc2ccccc2)N=C1C (stereo unspecified),> 100,> 100,> 100,> 100,> 100,> 100,> 100,–,> 100,> 100,> 100,–,> 100,> 100,> 100,> 100,–,–,–,–
CSc1ccsc1-c1sc(-c2cc(SC)c(-c3sc(-c4cc(SC)c(-c5sccc5SC)s4)cc3SC)s2)cc1SC,29.1,> 100,> 100,> 100,> 100,> 100,> 100,> 100,> 100,> 100,> 100,> 100,> 100,> 100,–,> 100,> 100,> 100,> 100,> 100
O=C(O)CCSC(CC1(c2ccc(Cl)cc2)NC(=O)CCS1)c1ccccc1 (stereo unspecified),20.9,32.1,44.1,38.1,> 100,14.1,> 100,50.9,> 100,37,43.2,48,> 56.1,36,–,39.6,38,> 53.8,33.4,37.3
COc1cccc2nc3c(C(=O)NCCN(C)C)cccc3cc12,12.5,11.2,7.1,7.61,13.9,13.6,2.49,4.37,21.2,6.5,10.8,3.09,15.9,10.8,–,12.3,4.94,14.4,7.5,10.2
O=C(N(O)c1ccccc1Cl)C(O)(c1ccccc1)c1ccccc1,> 100,> 100,> 100,> 100,71.5,> 100,> 100,> 100,> 100,> 100,> 100,> 100,> 100,> 100,–,> 100,> 100,> 100,> 100,> 100
CC1OC(OC2C(OC(=O)[C@]34CCC(C)(C)C[C@H]3C3=CC[C@@H]5[C@@]6(C)CC[C@H](OC7OC(CO)C(O)C(O)C7OC7OC(CO)C(O)C(O)C7O)C(C)(C)[C@@H]6CC[C@@]5(C)[C@]3(C)CC4)OCC(O)C2O)C(O)C(OC2OCC(O)C(O)C2O)C1OC1OCC(O)C(OC2OCC(O)C(O)C2O)C1O (stereo partly specified),62.6,> 79.4,29.6,14.2,23.2,21.8,> 74.6,6.3,48.6,23.5,21.4,23.3,49.5,29.8,–,4.38,> 69.5,38.3,50.9,25.9
CC(C)C(C/C=C1\CC(CO)(COC(=O)C(C)(C)C)OC1=O)C(C)C (stereo unspecified),14.7,29.8,20.4,49.6,44.9,28.2,17.7,29.8,25,25.4,18.1,20,26,21.1,–,24.8,29,19.6,11.8,20.9
Cc1c2cccc-2c(OCCO)cc2c3ccccc3n(C)c12,16.2,45,16.1,18.3,21.4,12.9,8.15,12.2,34.6,16.1,16.9,5.77,18.6,23.4,–,14.6,7.34,20.6,7.15,11.5
C[N+](C)(C)CC1CCC/C1=N\OC(=O)c1ccccc1 (stereo unspecified),> 100,> 100,> 100,> 100,> 100,> 100,> 100,> 100,> 100,–,> 100,> 100,> 100,–,> 100,–,> 100,–,–,–
